# Experimental data published in patent publication US20140301961A1, “COMPOUNDS WITH ANTI-AGING ACTIVITIES” (priority 2011, published 2014).
# Tests used:
# [1] = tested on: VEGF; assay: Inflammation induced VEGF synthesis in cultured dermal fibroblasts; format: cell-based, human; settings: inflammatory inducer PMA (FIG. 10)
# Procedure: (§1) MMP-inhibitory activity for compounds of the invention was also assessed on human dermal fibroblasts. Dermal fibroblasts were cultured in Dulbecco's Modified Eagle Medium (DMEM) (Invitrogen) with 10% EBS (ex. Invitrogen) and 1% Pencillin/Streptavidin (ex. Invitrogen). To induce inflammation in the cells, PMA (phorbol myristate acetate) (ex. Sigma) was used at a concentration of 10 nM. […] The cells were stimulated for 24 h and the culture supernatant was collected and stored at −20° C. until further analysis.
# Fluorokine MultiAnalyte Profiling (xMAP) using the BioPlex (ex. Biorad) dual laser flow-based sorting and detection analyzers manufactured by Luminex corporation (Luminex, Austin, Tex.) was employed to measure levels of MMP in conditioned media samples of stimulated dermal fibroblasts. The technology incorporated polystyrene microspheres dyed internally with differing ratios of two spectrally distinct fluorophores to create a family of different spectrally addressed bead sets. The bead utilized in this study was conjugated with a biotinylated capture antibody specific for a unique MMPs, The assay was performed without antecedent serum depletion. Results were compared with medium from cells treated with vehicle only (DMSO). The assays utilized a 96-well microplate format and were processed according to the manufacturer's protocol, including generation of a standard curve for each target prepared in background assay diluents. Values that fell within the linear range of the calibration assay were accepted. Samples were analyzed using the Bio-Plex suspension array system and Bio-Plex Manager software 4.0 (Bio-Rad Laboratories, Hercules, Calif.). Quantities were determined by comparison to standard curves obtained for the different MMP.
# Cell culture and cytokine analysis was carried out on human dermal fibroblasts as described in Example 3.1. The methodology was adapted in order analyze VEGF production.
# [2] = tested on: connective tissue growth factor (CTGF); assay: Affymetrix gene array on skin explants, CTGF; format: cell-based, human; settings: topical, 24 hours
# Text: (§2) Subcutaneous fat from full thickness skin, obtained from surgical waste material from breast reduction procedures, was removed with a scalpel. Three healthy Caucasian female donors were used for this study. The female donors differed from those of the skin-treatment study outlined previously 8 mm punch biopsies were taken from the skin (and these biopsies are now referred to as skin explants). Skin explants were put on Milipore cell culture inserts (12 mm diameter). Inserts containing skin explants were put in 6-well plates (one insert/well) and 1 mL of supplemented keratinocyte medium (ex Cascade Biologics) was added to each well. A tretinoin-containing cream (Aberela® ex. Janssen): 0.05% tretinoin in the cream, was applied topically to each explant (5 μL/cm^2) using a positive displacement pipette. A placebo cream without tretinoin was used as a control. The skin explants were incubated with tretinoin for 24 hours at 37° C. in 5% CO2-humidified air.
# (§3) RNA concentration was measured with ND-1000 spectrophotometer (ex. NanoDrop Technologies) and RNA quality was evaluated using the Agilent 2100 bioanalyzer system (ex. Agilent Technologies). 250 nanograms of total RNA from each skin or skin explant sample was used to prepare biotinylated fragmented cRNA according to the GeneChip® 3′IVT Express Kit Manual (PN702646 Rev 1, ex. Affymetrix Inc.). Affymetrix GeneChip® expression arrays (Human Genome U133 Plus 2.0) were hybridized for 16 hours in a 45° C. incubator, rotated at 60 rpm. According to the GeneChip Expression Wash, Stain and Scan Manual (PN 702731 Rev 2, ex. Affymetrix Inc.) the arrays were washed and stained using the Fluidics Station 450 and scanned using the GeneChip® Scanner 3000 7G.
# (§4) Analysis of the gene expression data was carried out in the statistical computing language R (http://www.r-project.org) using packages available from the Bioconductor project (www.bioconductor.org). The raw data was normalized using the robust multi-array average (RMA) method. In order to search for differentially expressed genes between the X samples and the Y samples group an empirical Bayes moderated t-test was then applied using the ‘limma’ package.
# Skin explants were obtained as detailed in Example 3.1. Compounds naringenin and N-acetyl aspartic acid were topically applied on skin explants for 24 hours and investigated with Affymetrix gene array.
# [3] = tested on: heparin-binding EGF-like growth factor (HBEGF); assay: Affymetrix gene array on skin explants, HBEGF; format: cell-based, human; settings: topical, 24 hours, cut-off |log 2−ratio|>1
# Text: as §2, §3
# Analysis of the gene expression data was carried out in the statistical computing language R (http://www.r-project.org) using packages available from the Bioconductor project (www.bioconductor.org). The raw data was normalized using the robust multi-array average (RMA) method. […]
# [4] = tested on: Plasminogen activator (PLAT); assay: Plasminogen activator (PLAT) activation
# [5] = tested on: Kallikrein 8; assay: Kallikrein 8 ELISA in human normal keratinocytes; format: cell-based; settings: 4 days stimulation (FIG. 14)
# Procedure: (§5) Keratinocytes were cultured in commercially available keratinocyte medium M154 (Cascade Biologics/Invitrogen) # M154500 with a final calcium […]. Supplements were added meeting following final concentrations of growth factors; bovine pituitary extract (BPE), 0.2% v/v·bovine insulin, 5 μg/ml·hydrocortisone, 0.18 μg/ml·bovine transferrin, 5 μg/ml·human epidermal growth factor, 0.2 ng/ml.
# Keratinocytes used for Kallikrein 8 experiments were cultured as described in example 2.1. Experiments were performed in monolayers with 80% confluence. The cells were stimulated for 4 days prior to kallikrein 8 analysis with the different actives and then culture supernatant were collected and stored in −20° C. until further analysis. Kallikrein 8 production was analysed in cell culture supernatants from stimulated keratinocytes using a ELISA assay specific for Kallikrein 8 (Uscn Life Science Inc, E90690Hu). Results were compared with cell culture supernatants from DMSO vehicle treated cells. The assays utilized a 96-well microplate format and were processed according to the manufacturer's protocol, including generation of a standard curve prepared in background assay diluents. Absorbance of the assay dye was read at a Synergy HT plate reader. Values that fell within the linear range of the calibration assay were accepted. Quantities were determined by comparison to standard curves obtained for KLK8.
# [6] = tested on: prostaglandin-endoperoxide synthase 1 (PTGS1); assay: Affymetrix gene array on skin explants, PTGS1; format: cell-based, human; settings: topical, 24 hours
# Text: as §2, §3, §4
# (§6) Skin explants were obtained as detailed in Example 3.1.
# [7] = tested on: hydroxysteroid (17-beta) dehydrogenase 2 (HSD17B2); assay: Affymetrix gene array on skin explants, HSD17B2; format: cell-based, human; settings: topical, 24 hours
# Text: as §2, §3, §4, §6
# [8] = tested on: steroid 5 alpha-reductase 3 (SRD5A3); assay: Affymetrix gene array on skin explants, SRD5A3; format: cell-based, human; settings: topical, 24 hours
# Text: as §2, §3, §4, §6
# [9] = tested on: tachykinin, precursor 1 (TAC1); assay: Affymetrix gene array on skin explants, TAC1; format: cell-based, human; settings: topical, 24 hours
# Text: as §2, §3, §4, §6
# [10] = tested on: arachidonate 5-lipoxygenase (ALOX5); assay: Affymetrix gene array on skin explants, ALOX5; format: cell-based, human; settings: topical, 24 hours
# Text: as §2, §3, §4, §6
# [11] = tested on: pro-collagen type 1; assay: Pro-collagen 1 ELISA in dermal fibroblasts; format: cell-based, human; settings: 24 hour stimulation, 3 donors (FIG. 5)
# Procedure: as §1
# Fibroblast cells were cultured as outlined in Example 3.1 and treated with compounds of the invention The secretion of pro-collagen in the cell culture supernatants were analyzed using Pro-Collagen 1 specific ELISA (#8003; ex. Quidel). Results were compared with cell culture supernatants from DMSO vehicle treated cells. The assays utilized a 96-well microplate format and were processed according to the manufacturer's protocol, including generation of a standard curve prepared in background assay diluents. Absorbance of the assay dye was read at a Synergy HT plate reader. Values that fell within the linear range of the calibration assay were accepted. Quantities were determined by comparison to standard curve obtained for pro-collagen 1.
# [12] = tested on: fibronectin; assay: Fibronectin production in human keratinocytes; format: cell-based; settings: 6 days stimulation, compared to all-trans retinoic acid and retinol
# Procedure: as §5
# (§7) Medium was changed every other day. Cells were grown to 80% confluence prior stimulation with compounds. Experiments were performed in 24-well plates. The cells were treated with individual compounds of the invention for 6 days. After 3 days the medium was refreshed. A source of calcium ions was used as a positive control. After 6 days tissue culture medium was stored in −20° C. until analysis.
# Experimental method as outlined in Example 3.1 was modified in order to analyze fibronectin levels extracted from keratinocytes stimulated for 6 days with all-trans retinoic acid, retinol, arachidonic acid, β-aescin, and […] (ethyl ester) at a range of concentrations. Experiments were performed in duplicates.
# Cells were cultured as described in Example 5.1. and the methodology described in Example 3.1 was adapted in order analyze fibronectin production.
# [13] = tested on: Keratin 1/10; assay: Keratin 1/10 production in human normal keratinocytes; format: cell-based; settings: concentration not given
# Procedure: as §5, §7
# Cells were cultured as described in Example 5.1. and the methodology described in Example 3.1 was adapted in order analyze keratin 1/10 production.
# [14] = cited from earlier work
# [15] = tested on: keratin 6; assay: Keratin-6 production in normal human keratinocytes; format: cell-based; settings: normal human keratinocytes (FIG. 11)
Compound,inflammatory induced VEGF synthesis [1],synthesis of kallikrein 8 [5],production of pro-collagen type 1 [11],fibronectin production / release [12],production of Keratin 1/10 [13],further results
"CC1=C(/C=C/C(C)=C/C=C/C(C)=C/C(=O)O)C(C)(C)CCC1 [All-trans retinoic acid, all-trans retinoic acid, reference compound]",additional increase in VEGF,significant stimulation of kallikrein 8,,,,"CTGF gene expression ([2]; cut-off |log 2−ratio|>1): No; CTGF gene expression ([2]; cut-off |log 2−ratio|>1, listed as all-trans retinoic acid): did not have any effect; HBEGF gene expression [3]: 1.21 log 2−ratio; Plasminogen activator (PLAT) activation [4]: activated; PTGS1 gene expression [6]: −1.03 log 2−ratio; HSD17B2 gene expression [7]: −0.48 log 2−ratio; SRD5A3 gene expression [8]: 0.29 log 2−ratio; TAC1 gene expression [9]: −4.01 log 2−ratio; ALOX5 gene expression [10]: −0.69 log 2−ratio"
"CCCCC/C=C\C/C=C\C/C=C\C/C=C\CCCC(=O)O [Arachdonic acid, Arachidonic acid]",,significant increase in the synthesis of kallikrein 8,promote pro-collagen 1 expression,higher fibronectin production than retinoic acid,stimulate production of Keratin 1/10,Log p [14]: 6.98
CC/C=C\C/C=C\C/C=C\C/C=C\C/C=C\C/C=C\CCC(=O)OCC [Docosahexaenoic acid (ethyl ester)],,significant increase in the synthesis of kallikrein 8,convincing trend towards increasing,higher fibronectin production than retinoic acid,stimulate production of Keratin 1/10,keratin-6 production [15]: stimulated keratin-6 production
O=c1c(O)c(-c2ccc(O)c(O)c2)oc2cc(O)cc(O)c12 [Quercetin],,induce production of Kallikrein 8,promote pro-collagen 1 expression,,stimulate production of Keratin 1/10,
O=c1cc(-c2ccc(O)cc2)oc2c([C@@H]3O[C@H](CO)[C@@H](O)[C@H](O)[C@H]3O)c(O)cc(O)c12 [Vitexin],,,,,,Log p [14]: 1.5
"CC1=C(/C=C/C(C)=C/C=C/C(C)=C/CO)C(C)(C)CCC1 [retinol, All-trans retinol, reference compound]",small but insignificant decrease in VEGF,significant stimulation of kallikrein 8,,,,
β-aescin [Beta Aescin],"decreased VEGF expression, although insignificant",induce production of Kallikrein 8,convincing trend towards increasing,higher fibronectin production than retinoic acid,stimulate production of Keratin 1/10,
